Results taken from ChEMBL document CHEMBL4725304, “Synthesis and evaluations of selective COX-2 inhibitory effects: Benzo[d]thiazol analogs” (Bioorg Med Chem Lett, 2020).
Calls of active or inactive are those of the source. No cut-off for these calls is given here.

Legend:
Mus musculus [1] = assay: Antiinflammatory activity in mouse assessed as reduction in xylene-induced ear edema at 100 mg/kg, ip administered after prior to xylene stimulation and measured after 1 hr relative to control; assay type: functional
Mus musculus [2] = assay: Antiinflammatory activity in mouse assessed as xylene-induced ear edema at 100 mg/kg, ip administered prior to xylene stimulation and measured after 1 hr (reference value: 2.05 +/- 0.40 mg); assay type: functional
Mus musculus [3] = assay: Analgesic activity in mouse assessed as reduction in acetic acid-induced abdominal writhing at 100 mg/kg, ip relative to control; assay type: functional
Homo sapiens = species on record: Homo sapiens; assay: Selectivity index, ratio of IC50 for COX1 (unknown origin) to IC50 for COX2 (unknown origin)
[4] = target: Prostaglandin G/H synthase 1 (Homo sapiens, UniProt P23219); assay: Inhibition of COX1 (unknown origin); assay type: single protein
Sequence of Prostaglandin G/H synthase 1 (P23219 whole entry): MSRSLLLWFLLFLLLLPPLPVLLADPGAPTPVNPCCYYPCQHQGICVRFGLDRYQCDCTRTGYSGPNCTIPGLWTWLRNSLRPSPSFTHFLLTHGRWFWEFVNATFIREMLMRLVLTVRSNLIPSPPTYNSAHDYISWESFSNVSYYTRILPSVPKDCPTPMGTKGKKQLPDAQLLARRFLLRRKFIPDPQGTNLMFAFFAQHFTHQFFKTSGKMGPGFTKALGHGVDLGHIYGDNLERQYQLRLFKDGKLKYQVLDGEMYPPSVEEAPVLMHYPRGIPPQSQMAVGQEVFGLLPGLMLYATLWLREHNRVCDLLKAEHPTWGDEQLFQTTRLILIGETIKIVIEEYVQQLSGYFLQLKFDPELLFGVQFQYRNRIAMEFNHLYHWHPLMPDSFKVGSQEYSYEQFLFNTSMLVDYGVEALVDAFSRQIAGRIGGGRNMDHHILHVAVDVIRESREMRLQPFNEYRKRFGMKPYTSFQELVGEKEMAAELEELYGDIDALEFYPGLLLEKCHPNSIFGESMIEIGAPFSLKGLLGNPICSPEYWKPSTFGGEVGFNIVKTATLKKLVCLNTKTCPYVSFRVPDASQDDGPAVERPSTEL

[5] = target: T1, Prostaglandin G/H synthase 2 (Homo sapiens, UniProt P35354); assay: Inhibition of COX2 (unknown origin)
T1 sequence (P35354 whole entry): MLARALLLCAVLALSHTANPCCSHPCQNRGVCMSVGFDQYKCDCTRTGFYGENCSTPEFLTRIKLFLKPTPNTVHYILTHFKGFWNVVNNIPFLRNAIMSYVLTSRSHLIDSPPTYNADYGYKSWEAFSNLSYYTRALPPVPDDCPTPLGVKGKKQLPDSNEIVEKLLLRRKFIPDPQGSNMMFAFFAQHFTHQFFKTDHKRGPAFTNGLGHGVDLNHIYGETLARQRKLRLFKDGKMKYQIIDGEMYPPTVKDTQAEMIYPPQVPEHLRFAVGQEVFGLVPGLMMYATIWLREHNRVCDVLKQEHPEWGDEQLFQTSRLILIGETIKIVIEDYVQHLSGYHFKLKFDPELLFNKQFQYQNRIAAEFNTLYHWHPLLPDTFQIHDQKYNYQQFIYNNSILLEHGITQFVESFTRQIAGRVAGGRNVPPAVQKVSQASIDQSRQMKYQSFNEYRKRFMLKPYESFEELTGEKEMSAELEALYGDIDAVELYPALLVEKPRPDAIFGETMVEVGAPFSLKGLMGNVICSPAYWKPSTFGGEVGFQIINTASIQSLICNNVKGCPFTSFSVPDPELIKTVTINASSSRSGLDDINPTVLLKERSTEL

Rattus norvegicus = assay: Antiinflammatory activity against carrageenan-induced paw edema in rat assessed as inhibition of paw edema at 100 mg/kg, ip administered at 1 hr prior to carrageenan challenge and measured after 4 hrs by electronic-onkographic analysis; assay type: functional; details: time 5 hrs

Row | Ratio IC50 (Homo sapiens) | IC50 [4] | IC50 [5] | Compound | inhibition in vivo at 100 mg/kg (Mus musculus [1]) | Activity (Mus musculus [2]) | inhibition in vivo at 100 mg/kg (Mus musculus [3]) | inhibition (Mus musculus [3]) | inhibition in vivo at 100 mg/kg (Rattus norvegicus)
1 |  |  |  | Brc1cccc(COc2nc3ccccc3s2)c1 | 77.6% | 0.46 mg | 51.9% |  | 
2 | 7.2 | 5.55 µM | 0.77 µM | Clc1ccc(COc2nc3ccccc3s2)cc1 | 82.9% | 0.35 mg | 51.9% |  | 
3 | 10.6 | 5.32 µM | 0.5 µM | Brc1ccc(OCCOc2nc3ccccc3s2)cc1 | 94.6% | 0.11 mg | 68.6% |  | 
4 | 18.6 | 5.22 µM | 0.28 µM | Fc1cccc(COc2nc3ccccc3s2)c1 | 86.8% | 0.27 mg | 51.9% |  | 
5 |  |  |  | COc1ccc(COc2nc3ccccc3s2)cc1 | 2.43% | 2 mg |  | inactive | 
6 |  |  |  | Clc1ccc(OCCOc2nc3ccccc3s2)cc1 | 66.3% | 0.69 mg | 68.6% |  | 
7 |  |  |  | COc1ccc2c(c1)c(CC(=O)O)c(C)n2C(=O)c1ccc(Cl)cc1 [INDOMETHACIN] | 82.4% | 0.36 mg |  |  | 
8 |  |  |  | Clc1ccccc1COc1nc2ccccc2s1 | 14.6% | 1.75 mg |  | inactive | 
9 |  |  |  | FC(F)(F)c1ccccc1COc1nc2ccccc2s1 | 9.75% | 2.03 mg |  | inactive | 
10 | 14.1 | 5.08 µM | 0.36 µM | Brc1ccc(OCCOc2nc3ccccc3s2)c(Br)c1 | 87.3% | 0.26 mg | 68.6% |  | 
11 |  |  |  | Cc1ccc(COc2nc3ccccc3s2)cc1 | 1.95% | 2.01 mg |  | inactive | 
12 |  |  |  | Fc1ccc(OCCOc2nc3ccccc3s2)c(F)c1 | 56.1% | 0.9 mg | 68.6% |  | 
13 |  |  |  | O=[N+]([O-])c1ccc(COc2nc3ccccc3s2)cc1 | 4.39% | 1.96 mg | 97% |  | 
14 |  |  |  | FC(F)(F)c1ccc(COc2nc3ccccc3s2)cc1 | 12.2% | 1.8 mg | 99.6% |  | 
15 |  |  |  | Fc1ccccc1COc1nc2ccccc2s1 | 74.6% | 0.52 mg | 51.9% |  | 
16 |  |  |  | Brc1ccccc1COc1nc2ccccc2s1 | 75.6% | 0.5 mg | 51.9% |  | 
17 |  |  |  | c1ccc(OCCOc2nc3ccccc3s2)cc1 | 7.31% | 1.9 mg |  | inactive | 
18 |  |  |  | O=C(c1ccc([N+](=O)[O-])cc1)c1nc2ccc(F)c(Nc3ccccc3[N+](=O)[O-])c2s1 |  |  |  |  | 78%
19 |  |  |  | Fc1ccc(OCCOc2nc3ccccc3s2)cc1 | 72.7% | 0.56 mg | 99.9% |  | 
20 | 10.4 | 4.28 µM | 0.41 µM | Clc1ccc(OCCOc2nc3ccccc3s2)c(Cl)c1 | 85.4% | 0.3 mg | 68.6% |  | 
21 |  |  |  | N#Cc1ccc(COc2nc3ccccc3s2)cc1 | 12.7% | 1.79 mg |  | inactive | 
22 |  |  |  | Cc1cc(C)cc(COc2nc3ccccc3s2)c1 | 0.5% | 2.04 mg | 51.9% |  | 
23 |  |  |  | Brc1ccc(COc2nc3ccccc3s2)cc1 | 78% | 0.45 mg | 51.9% |  | 
24 |  |  |  | Clc1cccc(COc2nc3ccccc3s2)c1 | 80% | 0.41 mg | 51.9% |  | 
25 |  |  |  | c1ccc(COc2nc3ccccc3s2)cc1 | 68.8% | 0.64 mg | 51.9% |  | 
26 | 16.8 | 6.2 µM | 0.37 µM | Fc1ccc(COc2nc3ccccc3s2)cc1 | 90.7% | 0.19 mg | 51.9% |  | 
27 |  |  |  | COc1cc(COc2nc3ccccc3s2)cc(OC)c1 | 44.4% | 1.14 mg | 51.9% |  | 
